Experimental data as given in patent publication US8835466B2, “Synthesis and uses of pyroglutamic acid derivatives” (Prodimed, S.A., priority 2006, dated 2014).

Test system: ASB XIV cells (pulmonary squamous cell carcinoma)
Assay: Effect of isomers and BLAS on in vivo tumour growth, ASB XIV tumours (Example 8)
Design: species or system Balb/c mice
Conditions: 260 ng/mouse i.p. days 6, 7 and 14
Source text: This assay was made in order to compare the effect of each stereoisomer on in vivo tumour growth in mice with the effect of the mixture of all of them challenged with ASB XIV tumours. The stereoisomers assayed were the same as in example 7 above plus a mixture of all of them (BLAS). The equipment (when needed), reagents, dose, vehicle and route and volume of administration were the same as in example 7.
ASB XIV is a pulmonary squamous cell carcinoma originated in Balb/c mouse strain, and therefore syngeneic in mice with Balb/c genetic background.
ASB XIV cells (CLS, Eppelheim, Germany) were maintained in vitro by serial passages every 3-4 days. Cultures were performed with RPMI medium medium (RPMI, 10% foetal calf serum, 2 mM L-glutamine, non essential aminoacids, 1 mM sodium pyruvate, 20 mM HEPES, 80 μg/mL gentamycin; all of them were purchased from Sigma, St. Louis, Mo., USA) by seeding 5×10^6 cells onto 75 cm^2 culture flasks. Tumour cells collected from 48 hour cultures upon trypsinization (Sigma, St. Louis, Mo., USA) were used as source of ASB XIV cells in the present example.
• BLAS (mixture of isomers 1, 2, 3 and 4) at a concentration of 65 μg/mL in sterile physiological saline. Isomer 1 (9b) at a concentration of 65 μg/mL in sterile physiological saline. • Isomer 2 (9c) at a concentration of 65 μg/mL in sterile physiological saline. • Isomer 3 (9a) at a concentration of 65 μg/mL in sterile physiological saline. • Isomer 4 (9d) at a concentration of 65 μg/mL in sterile physiological saline. Placebo
Tumours were established by subcutaneous inoculation in the right hind flank. Mice (Balb/c) were inoculated with 0.2 mL containing 2×10^5 viable ASB XIV cells. The day of subcutaneous inoculation will be considered Day 0 of the test.
Mice were observed daily and the tumour size recorded twice a week. This was carried out by measuring two perpendicular diameters (d1/d2) with a calliper. These measures were used to obtain both tumour surface and volume: Tumour surface=d1×d2(mm^2) Tumour volume=d1×d2^2×½(mm^3)
Results were expressed as single values and/or as the mean±SD or median from each experimental group.
A case-control study was performed with treated and control mice in order to determine whether differences between BLAS or each diferent stereoisomer and administration of placebo were present. […] The U-test of Mann Withney was chosen for being one of the better known non-parametrical tests, anyway, results for this test are equivalent both to those of Wilcoxon's sum of ranges and Kruskal-Wallis two-groups test.
Due to the high dispersion of data, outlayers (animals beyond percentile 10 or above percentile 90 for tumour surface at day 33) were excluded of the study.

[1] = day 12 after tumour inoculation
[2] = day 15 after tumour inoculation
[3] = day 19 after tumour inoculation
[4] = day 22 after tumour inoculation
[5] = day 26 after tumour inoculation
[6] = day 29 after tumour inoculation
[7] = day 33 after tumour inoculation

Compound: Br.N[C@@]1(C[n+]2ccccc2)C[C@@H](C(=O)O)NC1=O.[Br-] (single isomer, unassigned; isomer 1) [isomer 1, 3R,5S-1-(3-Amino-5-carboxy-2-oxopyrrolidin-3-ylmethyl)pyridinium bromide hidrobromide]
- Tumour surface, overall values (Mean) (day 0 after tumour inoculation): 0 mm^2
- Tumour surface, overall values (Median) (day 0 after tumour inoculation): 0 mm^2
- Tumour volume, overall values (Mean) (day 0 after tumour inoculation): 0 mm^3
- Tumour volume, overall values (Median) (day 0 after tumour inoculation): 0 mm^3
- Tumour surface, overall values (Mean) (day 8 after tumour inoculation): 0 mm^2
- Tumour surface, overall values (Median) (day 8 after tumour inoculation): 0 mm^2
- Tumour volume, overall values (Mean) (day 8 after tumour inoculation): 0 mm^3
- Tumour volume, overall values (Median) (day 8 after tumour inoculation): 0 mm^3
- Tumour surface, overall values (Mean) [1]: 0.32 mm^2
- Tumour surface, overall values (Median) [1]: 0 mm^2
- Tumour volume, overall values (Mean) [1]: 0.45 mm^3
- Tumour volume, overall values (Median) [1]: 0 mm^3
- Tumour surface, overall values (Mean) [2]: 3.45 mm^2
- Tumour surface, overall values (Median) [2]: 0 mm^2
- Tumour volume, overall values (Mean) [2]: 5.34 mm^3
- Tumour volume, overall values (Median) [2]: 0 mm^3
- Tumour surface, overall values (Mean) [3]: 19.65 mm^2
- Tumour surface, overall values (Median) [3]: 16 mm^2
- Tumour volume, overall values (Mean) [3]: 53.37 mm^3
- Tumour volume, overall values (Median) [3]: 32 mm^3
- Tumour surface, overall values (Mean) [4]: 46.81 mm^2
- Tumour volume, overall values (Mean) [4]: 179.79 mm^3
- Tumour surface, overall values (Mean) [5]: 92.52 mm^2
- Tumour surface, overall values (Median) [5]: 72 mm^2
- Tumour volume, overall values (Mean) [5]: 474.10 mm^3
- Tumour volume, overall values (Median) [5]: 288 mm^3
- Tumour surface, overall values (Mean) [6]: 125.16 mm^2
- Tumour surface, overall values (Median) [6]: 110 mm^2
- Tumour volume, overall values (Mean) [6]: 733.26 mm^3
- Tumour volume, overall values (Median) [6]: 550 mm^3
- Tumour surface, overall values (Mean) [7]: 165.65 mm^2
- Tumour surface, overall values (Median) [7]: 154 mm^2
- Tumour volume, overall values (Mean) [7]: 1114.37 mm^3
- Tumour volume, overall values (Median) [7]: 864 mm^3
